Source: patent US6472389B1, “Pyrrolo[1,2-b] pyridazine derivatives having sPLA2 inhibitory effect” (Shionogi & Co., Ltd., priority 1998, dated 2002)

Columns and labels:
[1] = target: T1, recombinant human secretory phospholipase A2 (Homo sapiens, UniProt P14555); experiment: Inhibition test of human secretory phospholipase A2 (chromogenic assay, 96 well microtiterplate); assay type: biochemical; conditions: sPLA2 50 ng/well, 40° C., 30 minutes, OD 405 nm, substrate 1,2-bis(heptanoylthio)-1,2-dideoxy-sn-glycero-3-phospholylcholine
T1 sequence (P14555 21-144): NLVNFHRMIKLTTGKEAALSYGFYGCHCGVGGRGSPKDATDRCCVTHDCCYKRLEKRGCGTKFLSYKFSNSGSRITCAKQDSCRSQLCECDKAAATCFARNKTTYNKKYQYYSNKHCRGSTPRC
Source text: Inhibition Test of Human Secretory Phospholipase A2
In order to identify and evaluate an inhibitor of recombinant human secretory phospholipase A2, the following chromogenic assay is utilized. The assay herein has been applied for high volume screening wherein 96 well microtiterplate is used. A general explanation for such assay is described in “Analysis of Human Synovial Fluid Phospholipase A2 on Short Chain Phosphatidylcholine-Mixed Micelles: Development of a Spectrophotometric Assay Suitable for a Micortiterplate Reader” (Analytical Biochemistry, 204, pp 190-197, 1992 by Laure. J. Reynolds. Lori L. Hughes and Edward A. Dennis: the disclosure of which is incorporated herein for reference.
Bovine Serum Albumin (fatty acid free) (1 g/L) (Sigma A-7030)
pH 7.5 (adjusted with NaOH)
pH 4.5 (adjusted with acetic acid)
1 mg of sPLA2 is dissolved in 1 ml of an enzyme buffer. Thereafter, the solution is maintained at 4° C.
In the assay, 5 μl of the solution is diluted with 1995 μl of the reaction buffer to be used.
198 mg of 5,5′-dithiobis-2-[…] (manufactured by Wako Pure Chemicals) is dissolved in 100 ml of H2O
100 mg of racemic 1,2-bis(heptanoylthio)-1,2-dideoxy-sn-glycero-3-phospholylcholine is dissolved in 1 ml of chloroform.
624.9 mg of Triton-X 100 is dissolved in the reaction buffer.
Enzyme Reaction: for 1 plate of Microtiterplate
1) 0.106 ml of the substrate solution is put in a centrifugal tube, and nitrogen gas is jetted to remove the solvent. 0.54 ml of Triton-X 100 is added thereto, the mixture is stirred, thereafter it is sonified in a bath type sonification to dissolve. To the resulting product are added 17.8 m1l of the reaction buffer and 0.46 ml of DTNB, and 0.18 ml each of the admixture is poured to wells of the 96 well microtiterplate.
2) 10 μl of a test compound (or solvent blank) are added in accordance with alignment of plates which has been previously set.
3) Incubation is effected at 40° C. for 15 minutes.
4) 20 μl of an enzyme solution (sPLA2) which has been previously diluted (50 ng/well) are added to start reaction (40° C., 30 minutes).
5) Changes in absorbancy for 30 minutes are measured by a plate reader, and inhibition activity was calculated (OD: 405 nm).
6) IC50 was determined by plotting log concentration with respect to inhibition values within 10% to 90% inhibiting range.

melting point | IC50 [1] | SMILES
251 to 252 °C | 0.03 µM | COC(=O)COc1cc(-c2ccccc2)nn2c(Cc3ccccc3)c(C)c(C(=O)C(N)=O)c12 [Compound I-45]
167 to 168 °C | 0.268 µM | CCc1c(C(=O)C(N)=O)c2c(OCC(=O)OC)cc(COc3ccc(OC)cc3)nn2c1Cc1ccccc1 [Compound I-46]
176 to 179 °C | 0.618 µM | CCc1c(C(=O)C(N)=O)c2c(OCC(=O)OC)cc(COc3ccc(OC)c(OC)c3)nn2c1Cc1ccccc1 [Compound I-47]
191 to 192 °C | 0.211 µM | CCc1c(C(=O)C(N)=O)c2c(OCC(=O)OC)cc(COc3ccc(C)cc3)nn2c1Cc1ccccc1 [Compound I-48]
188 to 189 °C | 7.81 µM | CCc1c(C(=O)C(N)=O)c2c(OCC(=O)OC)cc(CN3C(=O)CCC3=O)nn2c1Cc1ccccc1 [Compound I-49]
178 to 179 °C | 0.526 µM | CCc1c(C(=O)C(N)=O)c2c(OCC(=O)OCc3ccccc3)cc(CN=[N+]=[N-])nn2c1Cc1ccccc1 [Compound I-50]
199 to 201 °C | 25.6 µM | COC(=O)COc1cc(Cc2ccccc2)nn2c(C)c(C)c(C(=O)C(N)=O)c12 [Compound I-51]
194 to 196 °C | 0.093 µM | COC(=O)COc1cc(C)nn2c(Cc3ccccc3-c3ccc(F)cc3)c(C)c(C(=O)C(N)=O)c12 [Compound I-52]
234 to 236 °C | 3.74 µM | COC(=O)COc1cc(C)nn2c(Cc3ccc(-c4ccccc4)cc3)c(C)c(C(=O)C(N)=O)c12 [Compound I-53]
190 to 192 °C | 0.148 µM | CCc1c(C(=O)C(N)=O)c2c(OCC(=O)OC)cc(C)nn2c1Cc1ccccc1-c1ccc(F)cc1 [Compound I-54]
197 to 199 °C | 0.056 µM | CCOC(=O)COc1cc(C)nn2c(Cc3ccccc3)c(C)c(C(=O)C(N)=O)c12 [Compound I-55]
160 to 161 °C | 0.052 µM | Cc1cc(OCC(=O)OCCN2CCOCC2)c2c(C(=O)C(N)=O)c(C)c(Cc3ccccc3)n2n1 [Compound I-56]
218 to 220 °C (dec.) | 0.007 µM | CCc1c(C(=O)C(N)=O)c2c(OCC(=O)O)cc(COc3ccccc3)nn2c1Cc1ccccc1 [Compound I-57]
226 to 228 °C (dec.) | 0.009 µM | CCc1c(C(=O)C(N)=O)c2c(OCC(=O)O)cc(CSc3ccccc3)nn2c1Cc1ccccc1 [Compound I-58]
228 to 231 °C (dec.) | 1.08 µM | CCc1c(C(=O)C(N)=O)c2c(OCC(=O)O)cc(CN3CCCC3)nn2c1Cc1ccccc1 [Compound I-59]
167 to 168 °C | 0.365 µM | CCc1c(C(=O)C(N)=O)c2c(OCC(=O)O)cc(CN3CCOCC3)nn2c1Cc1ccccc1 [Compound I-60]
249 to 250 °C (dec.) | 2.61 µM | CCc1c(C(=O)C(N)=O)c2c(OCC(=O)O)cc(CN3CCN(C)CC3)nn2c1Cc1ccccc1 [Compound I-61]
245 to 248 °C (dec.) | 0.012 µM | CCc1c(C(=O)C(N)=O)c2c(OCC(=O)O)cc(-c3ccc(F)cc3)nn2c1Cc1ccccc1 [Compound I-62]
250 to 253 °C (dec.) | 0.006 µM | CCc1c(C(=O)C(N)=O)c2c(OCC(=O)O)cc(-c3ccc(F)cc3)nn2c1Cc1ccccc1 [Compound I-63]
248 to 250 °C (dec.) | 0.007 µM | CCc1c(C(=O)C(N)=O)c2c(OCC(=O)O)cc(-c3ccc(OC)cc3)nn2c1Cc1ccccc1 [Compound I-64]

melting point | IC50 [1] | SMILES
218 to 219 °C (dec.) | 0.007 µM | CCc1c(C(=O)C(N)=O)c2c(OCC(=O)O)cc(C)nn2c1Cc1ccccc1-c1ccccc1 [Compound I-65]
188 to 190 °C | 0.006 µM | CCc1c(C(=O)C(N)=O)c2c(OCC(=O)O)cc(C)nn2c1Cc1cccc(Oc2ccccc2)c1 [Compound I-66]
272 to 275 °C (dec.) | 0.016 µM | CCc1c(C(=O)C(N)=O)c2c(OCC(=O)O)cc(C3CCCCC3)nn2c1Cc1ccccc1 [Compound I-67]
250 to 252 °C (dec.) | 0.025 µM | CCc1c(C(=O)C(N)=O)c2c(OCC(=O)O)cc(C3CCCC3)nn2c1Cc1ccccc1 [Compound I-68]
240 to 243 °C (dec.) | 0.008 µM | CCc1c(C(=O)C(N)=O)c2c(OCC(=O)O)cc(-c3ccc4c(c3)OCO4)nn2c1Cc1ccccc1 [Compound I-69]
200 to 201 °C | 0.009 µM | CCc1cc(OCC(=O)O)c2c(C(=O)C(N)=O)c(C)c(Cc3ccccc3)n2n1 [Compound I-70]
204 to 205 °C | 0.008 µM | CCCc1cc(OCC(=O)O)c2c(C(=O)C(N)=O)c(C)c(Cc3ccccc3)n2n1 [Compound I-71]
245 to 247 °C (dec.) | 0.009 µM | Cc1c(C(=O)C(N)=O)c2c(OCC(=O)O)cc(Cc3ccccc3)nn2c1Cc1ccccc1 [Compound I-72]
228 to 229 °C (dec.) | 0.019 µM | CSCc1cc(OCC(=O)O)c2c(C(=O)C(N)=O)c(C)c(Cc3ccccc3)n2n1 [Compound I-73]
197 to 198 °C | 0.015 µM | COCc1cc(OCC(=O)O)c2c(C(=O)C(N)=O)c(C)c(Cc3ccccc3)n2n1 [Compound I-74]
215 to 216 °C | 0.009 µM | CCc1c(C(=O)C(N)=O)c2c(OCC(=O)O)cc(COc3ccc(F)cc3)nn2c1Cc1ccccc1 [Compound I-75]
218 to 219 °C | 0.006 µM | CCc1c(C(=O)C(N)=O)c2c(OCC(=O)O)cc(COc3ccc(OC)cc3)nn2c1Cc1ccccc1 [Compound I-76]
204 to 206 °C | 0.01 µM | CCc1c(C(=O)C(N)=O)c2c(OCC(=O)O)cc(COc3ccc(OC)c(OC)c3)nn2c1Cc1ccccc1 [Compound I-77]
210 to 212 °C (dec.) | 0.464 µM | CCc1c(C(=O)C(N)=O)c2c(OCC(=O)O)cc(CN3C(=O)CCC3=O)nn2c1Cc1ccccc1 [Compound I-79]
199 to 200 °C (dec.) | 0.013 µM | CCc1c(C(=O)C(N)=O)c2c(OCC(=O)O)cc(CN=[N+]=[N-])nn2c1Cc1ccccc1 [Compound I-80]
232 to 233 °C (dec.) | 8.19 µM | Cc1c(C(=O)C(N)=O)c2c(OCC(=O)O)cc(Cc3ccccc3)nn2c1C [Compound I-81]
242 to 244 °C (dec.) | 0.093 µM | Cc1cc(OCC(=O)O)c2c(C(=O)C(N)=O)c(C)c(Cc3ccccc3-c3ccc(F)cc3)n2n1 [Compound I-82]
271 to 276 °C (dec.) | 0.083 µM | Cc1cc(OCC(=O)O)c2c(C(=O)C(N)=O)c(C)c(Cc3ccc(-c4ccccc4)cc3)n2n1 [Compound I-83]
214 to 216 °C (dec.) | 0.008 µM | CCc1c(C(=O)C(N)=O)c2c(OCC(=O)O)cc(C)nn2c1Cc1ccccc1-c1ccc(F)cc1 [Compound I-84]
